Reference: US7601686B2, “Hepatitis C virus inhibitors” (Bristol-Myers Squibb Company, priority 2005, dated 2009)
Like-named read-outs stand apart in the source and are kept apart here.

Tests used:
[1] = system: HCV replicon in HUH-7 cells; test: HCV replicon FRET assay; format: cell-based, Hepatitis C virus (strain 1b); settings: Hepatitis C virus
Outline: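 HUH-7 cells stably carrying a genotype 1b subgenomic HCV replicon (neo selection) treated with compound for 4 days at 37 °C, 0.5% DMSO final. Cytotoxicity (CC50) from alamar Blue fluorescence after 4 h (ex 530/em 580 nm), before the FRET replication read-out.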

[2] = biological target: T1, human neutrophil elastase (HNE) (Homo sapiens, UniProt P08246); test: Specificity assay, human neutrophil elastase; format: biochemical; settings: 2 h enzyme-inhibitor pre-incubation; read-out: HLE activity in the specificity assays
T1 construct: purchased Sigma
T1 sequence (P08246 30-267): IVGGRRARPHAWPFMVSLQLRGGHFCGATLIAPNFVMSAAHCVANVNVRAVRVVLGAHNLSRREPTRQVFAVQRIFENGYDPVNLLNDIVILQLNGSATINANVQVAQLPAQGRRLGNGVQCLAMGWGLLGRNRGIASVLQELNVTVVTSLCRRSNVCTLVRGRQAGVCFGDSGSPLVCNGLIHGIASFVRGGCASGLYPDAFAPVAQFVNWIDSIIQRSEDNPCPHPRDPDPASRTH
Protocol: (§1) The specificities of compounds of the present disclosure were determined against a variety of serine proteases: human neutrophil elastase (HNE), porcine pancreatic elastase (PPE) and human pancreatic chymotrypsin and one cysteine protease: human liver cathepsin B. In all cases a 96-well plate format protocol using colorimetric p-nitroaniline (pNA) substrate specific for each enzyme was used as described previously (PCT Patent Application No. WO 00/09543) with some modifications to the serine protease assays. All enzymes were purchased from Sigma while the substrates were from Bachem.
(§2) Each assay included a 2 h enzyme-inhibitor pre-incubation at room temperature followed by addition of substrate and hydrolysis to ˜30% conversion as measured on a Spectramax Pro microplate reader. Compound concentrations varied from 100 to 0.4 μM depending on their potency.
(§3) The final conditions for each assay were the same as those described in WO 03/099274, page 623.
(§4) The percentage of inhibition was calculated using the formula: [1−((UVinh−UVblank)/(UVctl−UVblank))]×100
(§5) A non-linear curve fit was applied to the inhibition-concentration data, and the 50% effective concentration (IC50) was calculated by the use of Excel XLfit software.

[3] = biological target: T2, porcine pancreatic elastase (PPE) (Sus scrofa, UniProt P00772); test: Specificity assay, porcine pancreatic elastase; format: biochemical; settings: 2 h enzyme-inhibitor pre-incubation; read-out: PPE activity in the specificity assays
T2 construct: purchased Sigma
T2 sequence (P00772 27-266): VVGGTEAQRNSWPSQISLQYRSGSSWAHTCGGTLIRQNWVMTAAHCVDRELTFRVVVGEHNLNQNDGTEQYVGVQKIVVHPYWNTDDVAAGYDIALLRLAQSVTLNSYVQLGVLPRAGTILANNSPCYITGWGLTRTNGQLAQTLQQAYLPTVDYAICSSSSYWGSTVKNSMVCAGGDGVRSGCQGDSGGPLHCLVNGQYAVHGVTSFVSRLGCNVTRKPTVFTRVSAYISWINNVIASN
Protocol: as §1, §2, §3, §4, §5

human liver cathepsin B = biological target: T3, human liver cathepsin B (Homo sapiens, UniProt P07858); test: Specificity assay, cathepsin B; format: biochemical; settings: 2 h enzyme-inhibitor pre-incubation; read-out: Cathepsin B activity in the specificity assays
T3 construct: purchased Sigma; host or cells: human liver
Protocol: as §1, §2, §3, §4, §5

`C=CC1CC1(NC(=O)[C@@H]1C[C@@H](NC(=O)c2cc(-c3ccccc3)nc3ccccc23)CN1C(=O)[C@@H](NC(=O)CC1CC1)C(C)(C)C)C(=O)NS(=O)(=O)C1CC1` (some centres unmarked) [Compound 9] showed an EC50 ([1]; HCV replicon cell assay, HUH-7, read-out: EC50 Range) of 0.15 to 15 µM, an EC50 ([1]; HCV replicon, HUH-7 cells, read-out: EC50 value in the replicon assay) of 2.25 µM and an IC50 [2] of over 100 µM. The IC50 [3] was over 100 µM and the IC50 (human liver cathepsin B) was over 100 µM.
